Results as given in publication PMC5340827 (European Journal of Drug Metabolism and Pharmacokinetics, 2016).

Tests used:
[1] = test system: LH, FSH and 17β-estradiol in the serum; experiment: Hormonal profile; format: in vivo, rat; details: s.c. 1 µg/kg; for highest estradiol concentration, suspension form: 1 h after injection
[2] = cited from earlier work
[3] = Pharmacokinetics and bioavailability after single s.c. injection; details: for extent of biological availability (EBA), solution relative to suspension: (AUCsolution/AUCsuspension) × 100 %, from AUC0−∞; for presence in the plasma after injection in the form of suspension: 24 h after s.c. 6 mg/kg

Substance	maximal concentration of estradiol, form of solution ([1]; solution, 30 min after injection) [pg/mL]	time of maximal concentration of estradiol, form of solution ([1]; solution) [min]	highest estradiol concentration, suspension form [1] [pg/mL]	time of highest concentration of FSH, suspension form [1] [h]	activity / relative potency in relation to natural GnRH [2]	extent of biological availability (EBA), solution relative to suspension [3] [%]	presence in the plasma after injection in the form of suspension [3]	EBA of dalarelin relative to buserelin, form of solution ([3]; (AUCdalarelin solution/AUCbuserelin solution) × 100 %) [%]	EBA of dalarelin relative to buserelin, form of suspension ([3]; (AUCdalarelin suspension/AUCbuserelin suspension) × 100 %) [%]
buserelin	45.7	30	21.4	4	20 times	13	detectable in the plasma even after 24 h		
dalarelin		30	24.2	2	roughly 14 times	8	detectable in the plasma even after 24 h	53	83
